Results published in ChEMBL document CHEMBL1201862, “PubChem BioAssay data set” (2004).
Calls of active or inactive are those of the source.

Experiments:
[1] = target: Tyrosine-protein kinase Lck (Homo sapiens, UniProt P06239); format: functional;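 note: lck was assayed as one member of a kinase panel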
[2] = target: Tyrosine-protein kinase BTK (Homo sapiens, UniProt Q06187); format: functional
[3] = target: Serine/threonine-protein kinase TAO1 (Homo sapiens, UniProt Q7L7X3); format: functional
[4] = target: Vascular endothelial growth factor receptor 2 (Homo sapiens, UniProt P35968); format: functional
[5] = target: Insulin-like growth factor 1 receptor (Homo sapiens, UniProt P08069); experiment: Navigating the Kinome. Panel member name: IGF1R; format: functional
Insulin-like growth factor 1 receptor, sequence (P08069 31-736 limits assumed): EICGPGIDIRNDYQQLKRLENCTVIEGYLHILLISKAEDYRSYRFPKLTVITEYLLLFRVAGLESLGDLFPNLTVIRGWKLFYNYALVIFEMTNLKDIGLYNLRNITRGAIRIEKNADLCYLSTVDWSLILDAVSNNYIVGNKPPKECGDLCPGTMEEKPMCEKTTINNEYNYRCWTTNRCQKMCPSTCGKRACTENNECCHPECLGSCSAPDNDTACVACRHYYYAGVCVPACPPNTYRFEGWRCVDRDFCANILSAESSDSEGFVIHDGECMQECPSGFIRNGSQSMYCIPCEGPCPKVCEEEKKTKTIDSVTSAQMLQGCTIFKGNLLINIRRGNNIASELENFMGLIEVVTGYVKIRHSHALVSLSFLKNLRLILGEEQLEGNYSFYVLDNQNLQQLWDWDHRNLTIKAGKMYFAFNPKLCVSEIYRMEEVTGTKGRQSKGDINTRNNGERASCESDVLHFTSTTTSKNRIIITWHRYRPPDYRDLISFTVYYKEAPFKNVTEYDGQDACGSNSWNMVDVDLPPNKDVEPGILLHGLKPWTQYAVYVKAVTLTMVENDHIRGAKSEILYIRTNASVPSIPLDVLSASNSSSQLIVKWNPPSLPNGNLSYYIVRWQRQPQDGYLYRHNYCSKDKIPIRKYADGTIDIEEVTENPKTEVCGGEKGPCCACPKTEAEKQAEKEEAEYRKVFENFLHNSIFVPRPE
Insulin-like growth factor 1 receptor, sequence (P08069 741-1367 limits assumed): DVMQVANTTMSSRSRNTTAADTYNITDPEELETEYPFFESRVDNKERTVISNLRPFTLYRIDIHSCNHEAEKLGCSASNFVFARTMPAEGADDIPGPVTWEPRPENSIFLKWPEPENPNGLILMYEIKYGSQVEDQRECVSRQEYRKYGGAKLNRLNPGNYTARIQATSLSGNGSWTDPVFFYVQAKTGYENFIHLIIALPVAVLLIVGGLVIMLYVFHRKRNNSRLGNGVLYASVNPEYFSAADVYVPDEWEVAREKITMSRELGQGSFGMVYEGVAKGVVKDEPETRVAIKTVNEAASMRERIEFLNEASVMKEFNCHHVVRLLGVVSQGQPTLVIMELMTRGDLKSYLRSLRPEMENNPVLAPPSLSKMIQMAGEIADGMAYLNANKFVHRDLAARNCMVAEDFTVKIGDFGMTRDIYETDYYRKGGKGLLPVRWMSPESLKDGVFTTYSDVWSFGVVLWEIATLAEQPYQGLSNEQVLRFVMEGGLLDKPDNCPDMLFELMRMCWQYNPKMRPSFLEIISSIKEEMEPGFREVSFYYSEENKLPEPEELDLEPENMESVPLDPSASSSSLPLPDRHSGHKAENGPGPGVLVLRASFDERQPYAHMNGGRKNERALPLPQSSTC

[6] = target: Misshapen-like kinase 1 (Homo sapiens, UniProt Q8N4C8); format: functional;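 note: kinome panel screen with MINK as the panel member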
[7] = target: Focal adhesion kinase 1 (Homo sapiens, UniProt Q05397); format: functional;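 note: measured as one member of a kinome panel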
[8] = target: Tyrosine-protein kinase Fyn (Homo sapiens, UniProt P06241); format: functional
Tyrosine-protein kinase Fyn, sequence (P06241 whole entry): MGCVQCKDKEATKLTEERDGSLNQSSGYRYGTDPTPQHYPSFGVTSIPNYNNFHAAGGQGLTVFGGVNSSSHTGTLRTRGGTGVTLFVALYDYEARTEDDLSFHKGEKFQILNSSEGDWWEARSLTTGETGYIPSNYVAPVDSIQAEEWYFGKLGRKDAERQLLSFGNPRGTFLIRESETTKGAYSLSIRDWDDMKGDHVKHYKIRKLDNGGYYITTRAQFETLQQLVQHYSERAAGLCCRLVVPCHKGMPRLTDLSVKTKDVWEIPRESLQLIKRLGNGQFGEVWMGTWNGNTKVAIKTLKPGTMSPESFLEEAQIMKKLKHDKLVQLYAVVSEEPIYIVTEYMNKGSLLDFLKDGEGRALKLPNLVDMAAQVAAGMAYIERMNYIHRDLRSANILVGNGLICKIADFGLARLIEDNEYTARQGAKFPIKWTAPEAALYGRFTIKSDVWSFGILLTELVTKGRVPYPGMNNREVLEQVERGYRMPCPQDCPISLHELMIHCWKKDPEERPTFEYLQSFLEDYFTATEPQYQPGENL

[9] = target: Mitogen-activated protein kinase kinase kinase kinase 4 (Homo sapiens, UniProt O95819); format: functional
Mitogen-activated protein kinase kinase kinase kinase 4, sequence (O95819 whole entry): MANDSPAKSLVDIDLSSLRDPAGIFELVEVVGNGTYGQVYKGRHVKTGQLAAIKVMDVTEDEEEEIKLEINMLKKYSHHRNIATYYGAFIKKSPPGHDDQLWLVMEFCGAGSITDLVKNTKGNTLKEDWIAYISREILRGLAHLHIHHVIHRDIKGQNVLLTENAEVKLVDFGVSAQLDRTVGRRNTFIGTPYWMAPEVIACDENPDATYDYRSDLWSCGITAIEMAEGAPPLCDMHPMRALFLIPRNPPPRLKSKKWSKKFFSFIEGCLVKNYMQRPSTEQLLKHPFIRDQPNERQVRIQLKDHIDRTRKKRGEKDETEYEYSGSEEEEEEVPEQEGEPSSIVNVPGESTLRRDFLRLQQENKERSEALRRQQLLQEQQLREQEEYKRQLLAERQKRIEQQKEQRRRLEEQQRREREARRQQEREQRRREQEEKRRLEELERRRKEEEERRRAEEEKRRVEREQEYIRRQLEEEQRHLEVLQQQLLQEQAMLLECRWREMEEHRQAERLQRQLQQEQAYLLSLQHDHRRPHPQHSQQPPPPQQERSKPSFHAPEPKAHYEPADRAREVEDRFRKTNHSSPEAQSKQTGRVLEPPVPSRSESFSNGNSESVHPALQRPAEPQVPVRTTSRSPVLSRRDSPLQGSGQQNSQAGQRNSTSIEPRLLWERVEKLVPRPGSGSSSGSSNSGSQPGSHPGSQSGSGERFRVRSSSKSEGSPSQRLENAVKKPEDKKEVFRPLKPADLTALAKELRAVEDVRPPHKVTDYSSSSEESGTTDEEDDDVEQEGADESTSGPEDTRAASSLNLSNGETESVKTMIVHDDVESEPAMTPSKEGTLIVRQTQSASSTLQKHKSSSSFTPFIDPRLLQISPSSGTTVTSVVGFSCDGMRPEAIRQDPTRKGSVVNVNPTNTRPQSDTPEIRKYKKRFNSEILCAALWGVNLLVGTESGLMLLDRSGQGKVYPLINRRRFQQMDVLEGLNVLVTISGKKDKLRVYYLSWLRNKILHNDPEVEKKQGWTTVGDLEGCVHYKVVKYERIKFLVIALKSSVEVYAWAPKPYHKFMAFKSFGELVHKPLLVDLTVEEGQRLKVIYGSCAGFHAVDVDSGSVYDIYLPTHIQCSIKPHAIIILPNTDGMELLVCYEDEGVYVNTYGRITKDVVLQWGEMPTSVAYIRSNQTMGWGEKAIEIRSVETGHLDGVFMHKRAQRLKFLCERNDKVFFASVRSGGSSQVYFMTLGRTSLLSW

[10] = target: Macrophage colony-stimulating factor 1 receptor (Homo sapiens, UniProt P07333); format: functional;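 note: value comes from the Navigating the Kinome screening panel, CSF1R member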
[11] = target: Cell division cycle 7-related protein kinase (Homo sapiens, UniProt O00311); format: functional;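 note: value obtained from a kinome-wide kinase panel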
Cell division cycle 7-related protein kinase, sequence (O00311 whole entry): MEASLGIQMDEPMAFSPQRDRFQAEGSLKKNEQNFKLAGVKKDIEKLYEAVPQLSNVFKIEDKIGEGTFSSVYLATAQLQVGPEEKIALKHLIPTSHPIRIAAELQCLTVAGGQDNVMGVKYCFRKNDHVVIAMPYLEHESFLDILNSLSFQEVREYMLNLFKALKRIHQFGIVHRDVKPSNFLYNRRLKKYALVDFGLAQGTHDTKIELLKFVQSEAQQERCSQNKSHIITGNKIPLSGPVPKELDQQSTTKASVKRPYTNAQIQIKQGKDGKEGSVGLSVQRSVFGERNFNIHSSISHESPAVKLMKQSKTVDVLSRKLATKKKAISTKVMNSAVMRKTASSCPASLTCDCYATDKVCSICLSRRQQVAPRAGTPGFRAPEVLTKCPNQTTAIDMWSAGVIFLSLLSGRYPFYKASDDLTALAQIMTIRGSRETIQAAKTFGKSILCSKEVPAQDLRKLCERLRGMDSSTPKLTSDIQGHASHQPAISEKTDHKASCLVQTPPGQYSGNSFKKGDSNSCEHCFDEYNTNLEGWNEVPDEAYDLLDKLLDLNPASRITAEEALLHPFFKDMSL

[12] = target: Wee1-like protein kinase (Homo sapiens, UniProt P30291); experiment: Navigating the Kinome. Panel member name: WEE1; format: functional
Wee1-like protein kinase, sequence (P30291 whole entry): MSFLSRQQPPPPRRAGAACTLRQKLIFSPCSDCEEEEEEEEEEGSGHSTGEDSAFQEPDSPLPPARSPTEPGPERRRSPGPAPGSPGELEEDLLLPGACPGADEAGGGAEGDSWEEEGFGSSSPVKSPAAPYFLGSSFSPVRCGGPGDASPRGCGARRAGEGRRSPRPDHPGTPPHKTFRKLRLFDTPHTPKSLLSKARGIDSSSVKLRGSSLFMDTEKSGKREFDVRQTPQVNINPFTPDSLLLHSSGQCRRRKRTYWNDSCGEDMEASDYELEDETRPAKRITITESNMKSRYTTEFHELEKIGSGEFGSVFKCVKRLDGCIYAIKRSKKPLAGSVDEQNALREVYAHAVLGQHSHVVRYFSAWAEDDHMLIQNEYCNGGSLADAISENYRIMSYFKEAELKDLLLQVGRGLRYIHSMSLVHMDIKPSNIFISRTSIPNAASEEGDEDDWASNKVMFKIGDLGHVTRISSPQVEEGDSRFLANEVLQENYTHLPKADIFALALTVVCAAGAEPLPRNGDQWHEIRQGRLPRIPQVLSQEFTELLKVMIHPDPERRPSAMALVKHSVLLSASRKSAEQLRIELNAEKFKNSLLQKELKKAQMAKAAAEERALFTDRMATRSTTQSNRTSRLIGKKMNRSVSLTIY

[13] = target: T1, Acyl-homoserine lactone acylase PvdQ (Pseudomonas aeruginosa (strain LESB58), UniProt Q9I194); experiment: P. aeruginosa PvdQ acylase inhibitors, dose response, biochemical, fluorescence, plate reader and imaging, cherry-picks (AID 493231)
T1 sequence (Q9I194 whole entry): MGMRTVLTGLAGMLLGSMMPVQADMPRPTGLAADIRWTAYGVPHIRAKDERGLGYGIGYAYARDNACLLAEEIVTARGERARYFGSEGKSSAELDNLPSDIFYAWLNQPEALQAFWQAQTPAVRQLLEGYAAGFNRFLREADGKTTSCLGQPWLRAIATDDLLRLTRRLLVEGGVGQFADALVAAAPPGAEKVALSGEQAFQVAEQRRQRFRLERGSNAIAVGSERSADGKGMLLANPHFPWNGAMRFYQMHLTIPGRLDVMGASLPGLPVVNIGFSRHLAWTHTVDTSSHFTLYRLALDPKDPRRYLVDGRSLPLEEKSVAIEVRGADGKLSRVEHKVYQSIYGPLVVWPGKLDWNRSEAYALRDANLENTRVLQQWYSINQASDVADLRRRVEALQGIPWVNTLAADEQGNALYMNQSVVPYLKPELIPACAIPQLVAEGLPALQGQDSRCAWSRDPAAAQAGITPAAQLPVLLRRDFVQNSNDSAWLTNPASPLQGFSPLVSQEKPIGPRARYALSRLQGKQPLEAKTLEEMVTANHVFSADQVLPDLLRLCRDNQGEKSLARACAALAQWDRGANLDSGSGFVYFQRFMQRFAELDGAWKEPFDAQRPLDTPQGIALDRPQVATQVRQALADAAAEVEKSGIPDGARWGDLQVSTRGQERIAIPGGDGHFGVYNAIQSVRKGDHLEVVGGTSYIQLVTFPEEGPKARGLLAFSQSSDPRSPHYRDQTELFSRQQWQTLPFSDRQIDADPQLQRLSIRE

[14] = tested on: HeLa; experiment: HeLa cell cytotoxicity, dose response, cytotoxicity control, 48 h, plate reader, cherry-picks (AID 504942); format: functional, cell-based; conditions: Homo sapiens
[15] = SAR analysis of small molecule inhibitors of Apaf-1 using a LZ-Caspase-9/Caspase-3 Fluorescent Selectivity assay - Set 2.; format: functional; conditions: read-out: IC50_Mean
[16] = target: T2, Apoptotic protease-activating factor 1 (Homo sapiens, UniProt O14727); experiment: SAR analysis of small molecule Inhibitors of Apaf-1 in a Fluorescent assay - set 2.; format: functional; conditions: read-out: IC50_Mean
T2 sequence (O14727 whole entry): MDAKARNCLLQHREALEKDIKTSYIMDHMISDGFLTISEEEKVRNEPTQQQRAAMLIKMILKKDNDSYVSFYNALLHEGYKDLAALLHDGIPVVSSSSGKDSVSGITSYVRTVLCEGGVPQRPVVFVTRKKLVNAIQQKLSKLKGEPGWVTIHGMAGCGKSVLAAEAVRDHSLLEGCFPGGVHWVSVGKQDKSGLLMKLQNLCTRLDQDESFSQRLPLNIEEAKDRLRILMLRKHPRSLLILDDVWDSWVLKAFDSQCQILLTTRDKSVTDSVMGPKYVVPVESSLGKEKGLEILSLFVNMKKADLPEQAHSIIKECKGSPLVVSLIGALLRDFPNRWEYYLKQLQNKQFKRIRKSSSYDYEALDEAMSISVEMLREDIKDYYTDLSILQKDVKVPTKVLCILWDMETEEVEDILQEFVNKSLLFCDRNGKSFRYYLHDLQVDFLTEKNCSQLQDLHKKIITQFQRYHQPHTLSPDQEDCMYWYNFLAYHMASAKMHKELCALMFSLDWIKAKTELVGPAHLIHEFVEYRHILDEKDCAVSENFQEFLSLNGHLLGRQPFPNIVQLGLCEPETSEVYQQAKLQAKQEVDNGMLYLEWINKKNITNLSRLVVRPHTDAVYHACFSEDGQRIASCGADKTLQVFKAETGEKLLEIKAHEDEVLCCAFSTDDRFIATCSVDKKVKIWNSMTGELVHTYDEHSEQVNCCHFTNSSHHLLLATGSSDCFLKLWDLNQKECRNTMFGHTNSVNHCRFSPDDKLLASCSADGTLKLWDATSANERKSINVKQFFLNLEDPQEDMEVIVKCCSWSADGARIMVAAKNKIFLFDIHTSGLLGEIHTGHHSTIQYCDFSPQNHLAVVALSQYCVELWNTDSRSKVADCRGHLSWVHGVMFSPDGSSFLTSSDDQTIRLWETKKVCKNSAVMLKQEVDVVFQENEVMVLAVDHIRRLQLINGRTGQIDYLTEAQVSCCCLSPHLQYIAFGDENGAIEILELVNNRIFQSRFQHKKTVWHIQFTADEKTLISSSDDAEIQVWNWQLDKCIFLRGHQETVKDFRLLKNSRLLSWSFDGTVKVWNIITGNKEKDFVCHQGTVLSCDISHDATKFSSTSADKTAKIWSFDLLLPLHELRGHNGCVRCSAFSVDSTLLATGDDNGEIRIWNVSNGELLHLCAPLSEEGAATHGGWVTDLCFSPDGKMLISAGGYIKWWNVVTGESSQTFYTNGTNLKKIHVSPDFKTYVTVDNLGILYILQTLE

[17] = target: Cytochrome P450 3A4 (Homo sapiens, UniProt P08684);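 note: CYP3A4 tested as one member of a cytochrome P450 panel screen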
[18] = tested on: Candida albicans; experiment: C. albicans growth inhibition with fluconazole, dose response, antifungal resistance reversal project, CaCi-2 strain, Alamar Blue, dry powder, set 2 (AID 488930); format: functional, organism-based
[19] = tested on: Candida albicans; experiment: fluconazole resistance reversal in C. albicans, dose response, CaCi-2 strain, Alamar Blue, dry powder, set 4 (AID 488943); format: functional, organism-based
[20] = tested on: Candida albicans; experiment: growth inhibition of resistant C. albicans, dose response, CaCi-8, fluconazole, Alamar Blue, dry powder (AID 488807); format: functional, organism-based
[21] = tested on: Candida albicans; experiment: growth inhibition of azole-resistant C. albicans, dose response, CaCi-8 strain, Alamar Blue, dry powder, set 2 (AID 488909); format: functional, organism-based
[22] = target: T2, Apoptotic protease-activating factor 1; experiment: SAR analysis of small molecule inhibitors of Apaf-1 in a Fluorescent assay.; format: functional; conditions: read-out: IC50_Mean
[23] = tested on: Streptococcus sp. 'group A'; experiment: growth inhibition of control SK(-) GAS strain, dose response, counter-screen for streptokinase expression inhibitor project, luminescence, kanamycin, BacTiterGlo, confirmation (AID 1900); format: functional, organism-based
[24] = tested on: BJ; experiment: cytotoxicity toward BJ-TERT fibroblasts, dose response, cell-based, RAS-independent, luminescence (AID 1933); format: functional; conditions: Homo sapiens
[25] = cells; format: functional, cell-based
[26] = target: T3, Streptokinase A (Streptococcus pyogenes serotype M1, UniProt P10520); experiment: S. pyogenes streptokinase expression inhibitors, potency, dose response, plasminogen activation absorbance, OD405 (AID 1914); format: functional, Streptococcus pyogenes M1 GAS;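 note: secreted streptokinase activity via plasminogen activation per viability signal from cell pellet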
T3 sequence (P10520 whole entry): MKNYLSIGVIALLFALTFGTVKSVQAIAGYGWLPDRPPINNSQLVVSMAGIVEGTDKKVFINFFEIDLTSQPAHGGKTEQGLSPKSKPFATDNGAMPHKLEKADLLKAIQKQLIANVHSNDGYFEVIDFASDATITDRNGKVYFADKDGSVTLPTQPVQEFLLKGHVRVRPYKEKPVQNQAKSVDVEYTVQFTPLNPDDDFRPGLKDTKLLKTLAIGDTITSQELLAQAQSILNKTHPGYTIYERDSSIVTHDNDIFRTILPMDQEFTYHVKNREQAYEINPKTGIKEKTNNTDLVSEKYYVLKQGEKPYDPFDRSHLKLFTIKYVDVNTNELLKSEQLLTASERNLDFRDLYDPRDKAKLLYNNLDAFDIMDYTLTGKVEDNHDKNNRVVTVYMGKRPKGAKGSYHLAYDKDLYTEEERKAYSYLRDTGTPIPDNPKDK

[27] = tested on: BJ; experiment: cells; format: functional, cell-based; conditions: Homo sapiens
[28] = cells; format: functional, cell-based; remark: listed apart in the source
[29] = tested on: BJ; experiment: cytotoxicity toward BJ-TERT-LT-ST fibroblasts, dose response, cell-based, RAS-independent, luminescence (AID 1935); format: functional; conditions: Homo sapiens;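 note: BJ fibroblasts immortalized with TERT plus LT and ST oncogenes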
[30] = cytotoxicity toward DRD oncogenic fibroblasts, dose response, cell-based, non-viral oncogenic, luminescence (AID 1934); format: functional; conditions: Homo sapiens
[31] = tested on: Streptococcus; experiment: Group A Streptococcus viability loss, dose response, counter-screen for streptokinase expression inhibitor project, luminescence, BacTiterGlo (AID 1915); format: functional, organism-based;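 note: potency for reduction of bacterial viability or growth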
[32] = tested on: BJ; experiment: cytotoxicity toward Ras-transformed BJeLR fibroblasts, dose response, cell-based, alamar blue fluorescence, cherrypicked samples (AID 2631); format: functional; conditions: Homo sapiens;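 note: confirmatory dose-response assay in RAS-dependent BJ fibroblasts engineered with TERT, LT and ST, with cytotoxicity read by fluorescence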
[33] = tested on: INS1; experiment: beta cell apoptosis inhibitors, cytokine rescue, dose response, luminescence, retest (AID 449756); format: functional, cell-based; conditions: Rattus norvegicus;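 note: cell death triggered by IL-1 beta plus TNF-alpha plus IFN-gamma mixture; protective hits raise ATP signal compared with cytokine alone wells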
[34] = target: Latent membrane protein 1 (Human herpesvirus 4 (strain B95-8), UniProt P03230); experiment: TES1-eGFP NF-kB reporter inhibition versus Tet-On dsRED, dose response, selectivity assay for LMP1 NF-kB inhibitor project, imaging, HEK293T, dual-color eGFP/dsRED, cherry-picks (AID 588398); format: functional, cell-based
Latent membrane protein 1, sequence (P03230 whole entry): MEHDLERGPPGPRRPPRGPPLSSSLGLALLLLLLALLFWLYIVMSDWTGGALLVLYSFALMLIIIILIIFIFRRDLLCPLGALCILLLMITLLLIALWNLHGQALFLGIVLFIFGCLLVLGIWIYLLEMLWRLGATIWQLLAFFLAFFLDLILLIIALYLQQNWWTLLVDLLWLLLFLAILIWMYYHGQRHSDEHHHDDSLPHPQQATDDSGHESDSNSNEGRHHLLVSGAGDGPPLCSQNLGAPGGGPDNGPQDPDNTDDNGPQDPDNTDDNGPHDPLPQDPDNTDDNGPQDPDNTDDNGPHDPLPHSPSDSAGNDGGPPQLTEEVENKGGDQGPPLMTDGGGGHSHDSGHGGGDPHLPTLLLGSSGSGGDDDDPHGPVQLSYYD

[35] = tested on: Jurkat; experiment: SAR Analysis of small molecule inhibitors of […] specific antigen receptor-induced NF-kB activation in a Jurkat cell line using a luminescence assay - Set 3. [Related pubchem assays (depositor defined):AID435022, AID435025, AID465]; format: functional, cell-based; conditions: Homo sapiens
[36] = tested on: HEK293; experiment: SAR Analysis of small molecule inhibitors of B-cell specific antigen receptor-induced NF-kB activation in a HEK-293T cell line using a luminescence assay - Set 2. [Related pubchem assays (depositor defined):AID435022, AID435025, AID489021]; format: functional, cell-based; conditions: Homo sapiens
[37] = tested on: HEK293; experiment: cytotoxicity in HEK293T NF-kB-Luc cells, SAR follow-up, cytotoxicity control for NF-kB activator project, cell-based, resazurin fluorescence (AID 493251); format: functional; conditions: Homo sapiens
[38] = target: Multidrug resistance protein CDR1 (Candida albicans, UniProt P43071); experiment: CaCDR1 efflux pump inhibitors in yeast, dose response, S. cerevisiae AD1-8u, singleplex, Cherry Pick1 hits (AID 588606); format: functional

O=C(Cc1ccccc1)Nc1cccc(-c2nc3sccn3c2-c2ccnc(Nc3ccccc3Cl)n2)c1
Ki [1]: > 6.31 µM (inactive) | Ki [2]: > 6.31 µM (inactive) | Ki [3]: > 6.31 µM (inactive) | Ki [4]: 0.501 µM (active) | Ki [5]: 1.26 µM (active) | Ki [6]: > 5.01 µM (inactive) | Ki [7]: 3.16 µM (active) | Ki [8]: > 6.31 µM (inactive) | Ki [9]: > 5.01 µM (inactive) | Ki [10]: 0.631 µM (active)

N#Cc1cccc(Nc2ncnc(Nc3ccc(F)cc3)n2)c1
Ki [11]: 0.1 µM (active) | Ki [12]: > 3.16 µM (inactive)

N#CC(c1ccccc1)c1cccc(Cl)n1 (stereo not drawn)
AC50 [13]: 1.1 µM (active) | AC50 [14]: > 380 µM (inactive)

O=C1C(=O)N(Cc2ccc(Cl)c(Cl)c2)c2ccccc21
IC50 [15]: 22.7 µM (active) | IC50 [16]: 34 µM (active) | AC50 [17]: 7.94 µM (inconclusive)

O=C(c1ccc(Cl)cc1)N1CCN(c2ccccn2)CC1
AC50 [18]: 12 µM (active) | AC50 [19]: 24.5 µM (active) | AC50 [20]: 0.64 µM (active) | AC50 [21]: 28.1 µM (active)

Cc1nc2cc(-c3nc4cc(NC(=O)c5cccs5)ccc4[nH]3)ccc2[nH]1
IC50 [22]: 41.2 µM (active)

CCCc1sc(N/N=C/c2ccccn2)nc1-c1ccc(F)cc1
EC50 [23]: 7.2 µM (active) | EC50 [24]: 6.54 µM (active) | EC50 [25]: 74.4 µM (active) | EC50 [26]: > 150 µM (not active) | EC50 [27]: 10.7 µM (active) | EC50 [28]: 38.1 µM (active) | EC50 [29]: 7.71 µM (active) | EC50 [30]: 19.9 µM (active) | EC50 [31]: 10.8 µM (active) | EC50 [32]: 19.4 µM (active) | AC50 [33]: 0.904 µM (active)

O=C1CN(C(=O)c2ccc(F)c(S(=O)(=O)N3CCOCC3)c2)c2ccccc2N1
AC50 [34]: 48.3 µM (active)

CCOc1ccc(-c2nc(CSCC(=O)N3CCCC3)c(C)o2)cc1
IC50 [35]: > 80 µM (inactive) | IC50 [36]: 46.6 µM (inactive) | IC50 [37]: > 80 µM (inactive)

COc1ccc(-c2sc3cc4c(cc3c2-c2ccc(OCCN3CCCCC3)cc2)OCO4)cc1
EC50 [38]: 0.062 µM (active)
